Measurements taken from ChEMBL document CHEMBL1122818, “Synthesis and biological activity of certain 6-substituted and 2,6-disubstituted 2'-deoxytubercidins prepared via the stereospecific sodium salt glycosylation procedure” (J Med Chem, 1985).

Legend:
[1] = Toxic level was evaluated; format: ADME
Human alphaherpesvirus 2 [2] = test: In vitro antiviral activity was tested against, herpes simplex type 2 virus (HSV-2); format: functional; settings: read-out: ED50 (the source's name)
L1210 = test: In vitro inhibitory effect was tested for cytostatic activity on the growth of murine leukemic L1210 cell lines; format: functional; settings: Mus musculus, read-out: ID50 (the source's name)
P388 = test: In vitro inhibitory effect was tested for cytostatic activity on the growth of lymphoid neoplasm P388 leukemic cell lines; format: functional; settings: Mus musculus, read-out: ID50 (the source's name)
Human respirovirus 3 [3] = test: In vitro antiviral activity was tested against, parainfluenza type 3 (Para 3) virus; format: functional; settings: read-out: ED50 (the source's name)
Vaccinia virus [4] = test: In vitro antiviral activity was tested against, vaccinia virus (VV); format: functional; settings: Orthopoxvirus vaccinia; read-out: ED50 (the source's name)
Measles morbillivirus [5] = test: In vitro antiviral activity was tested against, measles virus; format: functional; settings: read-out: ED50 (the source's name)
Human alphaherpesvirus 2 [6] = test: In vitro antiviral activity was tested against herpes simplex type 2 virus (HSV-2); format: functional; settings: read-out: ED50 (the source's name)
Measles morbillivirus [7] = test: In vitro antiviral activity was tested against measles virus; format: functional; settings: read-out: ED50 (the source's name)
Vaccinia virus [8] = test: In vitro antiviral activity was tested against vaccinia virus (VV); format: functional; settings: Orthopoxvirus vaccinia; read-out: ED50 (the source's name)
Human respirovirus 3 [9] = test: In vitro antiviral activity was tested against, parainfluenza type 3 (Para 3) virus; settings: read-out: ED50 (the source's name)
[10] = Toxic level was evaluated; None; format: ADME
[11] = Toxic level was evaluated; b=Too insoluble to test; format: ADME
Human alphaherpesvirus 2 [12] = test: In vitro antiviral activity was tested against, herpes simplex type 2 virus (HSV-2); b=Too insoluble to test; format: functional, organism-based
Measles morbillivirus [13] = test: In vitro antiviral activity was tested against, measles virus; b=Too insoluble to test; format: functional, organism-based
Human respirovirus 3 [14] = test: In vitro antiviral activity was tested against, parainfluenza type 3 (Para 3) virus; b=Too insoluble to test; format: functional, organism-based
Vaccinia virus [15] = test: In vitro antiviral activity was tested against, vaccinia virus (VV); b=Too insoluble to test; format: functional, organism-based; settings: Orthopoxvirus vaccinia

Row | SMILES | Toxic level [1] | EC50 (Human alphaherpesvirus 2 [2]) | EC50 (Human respirovirus 3 [3]) | EC50 (Vaccinia virus [4]) | EC50 (Measles morbillivirus [5]) | other results
1 | Nc1nc(Cl)nc2c1ncn2[C@H]1C[C@H](O)[C@@H](CO)O1 [CLADRIBINE] | 0.005 mM | 5 µM | > 500 µM | 5 µM | > 500 µM | IC50 (L1210): 0.026 µM; IC50 (P388): 0.032 µM
2 | Cc1cc2c(N)ncnc2n1[C@H]1C[C@H](O)[C@@H](CO)O1 | 5 mM | 2100 µM | 500 µM | 1000 µM | 500 µM | –
3 | CSc1nc(N)c2cc(C)n([C@H]3C[C@H](O)[C@@H](CO)O3)c2n1 | 1.6 mM | 1300 µM | > 5000 µM | 1000 µM | 250 µM | –
4 | Cc1cc2cncnc2n1[C@H]1C[C@H](O)[C@@H](CO)O1 | 5 mM | – | – | – | – | EC50 (Human alphaherpesvirus 2 [6]): 74 µM; EC50 (Measles morbillivirus [7]): 300 µM; EC50 (Vaccinia virus [8]): 1000 µM; EC50 (Human respirovirus 3 [9]): 1100 µM
5 | CSc1nc(N)c2cc(Cl)n([C@H]3C[C@H](O)[C@@H](CO)O3)c2n1 | 0.5 mM | 580 µM | 340 µM | > 500 µM | 100 µM | –
6 | OC[C@H]1O[C@@H](n2ccc3c(Cl)ncnc32)C[C@@H]1O | 1.6 mM | 650 µM | 960 µM | > 5000 µM | 89 µM | IC50 (L1210): 59 µM; IC50 (P388): 73 µM
7 | Nc1ncnc2c1ccn2[C@H]1C[C@H](O)[C@@H](CO)O1 [2'-Deoxytubercidin] | 1.6 mM | 50 µM | 660 µM | 160 µM | 210 µM | IC50 (L1210): 80 µM; IC50 (P388): 49 µM
8 | Cc1nc(N)c2cc(Cl)n([C@H]3C[C@H](O)[C@@H](CO)O3)c2n1 | 0.5 mM | 500 µM | > 1600 µM | 840 µM | 360 µM | –
9 | CSc1ncc2cc(C)n([C@H]3C[C@H](O)[C@@H](CO)O3)c2n1 | > 5 mM | 2900 µM | 1100 µM | 840 µM | 95 µM | –
10 | Nc1ncnc2c1cc(Cl)n2[C@H]1C[C@H](O)[C@@H](CO)O1 | 1.6 mM | 1100 µM | 1600 µM | 330 µM | 360 µM | –
11 | NC(=O)c1ncn([C@@H]2O[C@H](CO)[C@@H](O)[C@H]2O)n1 [RIBAVIRIN] | – | 190 µM | 160 µM | 85 µM | 30 µM | Toxic level [10]: Non-toxic
12 | Cc1nc(N)c2ccn([C@H]3C[C@H](O)[C@@H](CO)O3)c2n1 | 1.6 mM | 1600 µM | > 5000 µM | 3100 µM | 920 µM | –
13 | CSc1nc(Cl)c2cc(C)n([C@H]3C[C@H](O)[C@@H](CO)O3)c2n1 | – | – | – | – | – | Toxic level [11]: Too insoluble; ED50 (Human alphaherpesvirus 2 [12]): Too insoluble; ED50 (Measles morbillivirus [13]): Too insoluble; ED50 (Human respirovirus 3 [14]): Too insoluble; ED50 (Vaccinia virus [15]): Too insoluble
14 | OC[C@H]1O[C@@H](n2ccc3cncnc32)C[C@@H]1O | 5 mM | 1400 µM | > 5000 µM | > 5000 µM | 250 µM | –
15 | OC[C@H]1O[C@@H](n2ccc3c(S)ncnc32)C[C@@H]1O | 5 mM | 160 µM | > 5000 µM | 1100 µM | 27 µM | –
16 | Nc1nc(Cl)nc2c1ccn2[C@H]1C[C@H](O)[C@@H](CO)O1 | 0.5 mM | > 5000 µM | > 5000 µM | 1100 µM | > 5000 µM | –
